In patent publication US7964642B2, “Vanilloid TRPV1 receptor antagonists” (Pharmeste S.R.L., priority 2004, dated 2011):

Columns and labels:
[1] = tested on: rat trigeminal neuronal cells; assay: Ca2+ fluorescence measurements in cultured rat trigeminal ganglia neurons: KCl-evoked [Ca2+]i mobilization; type: cell-based; conditions: 5 mM KCl
[2] = molecular target: T1, vanilloid TRPV1 receptor (Rattus norvegicus, UniProt O35433); assay: Wiping test in rats (capsaicin-induced wiping movements); type: in vivo; conditions: intraperitoneal; for effect on capsaicin-induced wiping in rats: 15 minutes prior to capsaicin challenge; for ED50 capsaicin-induced wiping: 15 minutes prior to capsaicin challenge (capsaicin 0.1%, 50 μl on conjunctiva), mean and 95% fiducial limits
T1 construct: rat trigeminal neuronal cells, that therefore were identified as TRPV1 expressing neurons; endogenous in cells; host or cells: primary trigeminal ganglion neurons from 2-day-old Sprague-Dawley rats
Method: Newborn and adult Sprague-Dawley rats (˜250 g) were used (Harlam, Italy). All experiments complied with the national guidelines and were approved by the regional ethics committee.
The irritant effect (induction of wiping movements) of capsaicin was assessed by applying capsaicin 0.1% (50 μl) on the rat conjunctiva and the number of wiping movements was recorded during the 60 s period that followed the application. In another set of experiments, the rats were treated intraperitoneally with different doses of Ia and Ic and capsaicin-induced wiping was studied.

[3] = molecular target: T1, vanilloid TRPV1 receptor; assay: Ca2+ fluorescence measurements in cultured rat trigeminal ganglia neurons: inhibition of capsaicin-induced calcium mobilisation; type: cell-based; conditions: capsaicin 0.1 μM; for IC50: 10 minutes pre-incubation, mean and 95% fiducial limits, read-out: IC50 inhibiting capsaicin-evoked [Ca2+]i mobilization; for concentration giving complete inhibition of the response to capsaicin / threshold concentration that produced an inhibitory effect: compounds incubated 10 minutes prior to capsaicin challenge
Method: Ca^2+ Fluorescence Measurements in Cultured Rat Trigeminal Ganglia
Newborn rats (2 days old) were terminally anaesthetized and decapitated. Trigeminal ganglia were removed and rapidly placed in a cold phosphate buffered solution (PBS) before being transferred to collagenase/dispase (1 mg/ml dissolved in Ca^2+-Mg^2+-free PBS) for 35 min. at 37° C.^4.
After the enzymatic treatment the ganglia were rinsed three times with Ca^2+-Mg^2+-free PBS and then placed in 2 ml of cold DMEM supplemented with 10% foetal bovine serum (FBS, heat inactivated), 2 mM L-glutamine, 100 μ/ml penicillin and […] streptomycin. The ganglia were then dissociated into single cells by several passages through a series of syringe needles (23 G down to 25 G). Finally, the medium and ganglia cells sieved through a […] filter to remove debris and taken up with 8 ml of DMEM medium and centrifuged (200×g for 5 min.). The final cell pellet was re-suspended in DMEM medium (supplemented with 100 ng/ml mouse Nerve Growth Factor (mouse-NGF-7S) and cytosine-β-D-arabino-furanoside free base (ARA-C) […]). The cells were plated on poly-L-lysine (8.3 mM) and laminin (5 mM) coated 25 mm glass cover slips and kept for 2 to 5 days at 37° C. in a humidified incubator gassed with 5% CO2 and air. Plated neurons were loaded with Fura-2-AM-ester (3 μM) in Ca^2+ buffer solution of the following composition (mM): CaCl2 1.4, KCl 5.4, MgSO4 0.4, NaCl 135, D-glucose 5, HEPES 10 with BSA 0.1%, at pH 7.4, for 40 min at 37° C., washed twice with the Ca^2+ buffer solution and transferred to a chamber on the stage of a Nikon eclipse TE300 microscope. The dye was excited at 340 and 380 nm to indicate relative [Ca^2+]i changes by the F340/F380 ratio recorded with a dynamic image analysis system (Laboratory Automation 2.0, RCS, Florence, Italy). Capsaicin (0.1 μM) and ionomycin (5 μM) were added to the chamber. A calibration curve using a buffer containing Fura-2-AM-ester and determinant concentrations of free Ca^2+ was used to convert the obtained data from F340/F380 ratio to [Ca^2+]i (nM)^5.
The effects of Ia, Ib and Ic were tested against capsaicin-induced calcium mobilisation; Ia, Ib and Ic were incubated for 10 minutes prior to the capsaicin challenge. The inhibitory effect of the reference TRPV1 antagonist, capsazepine, was also tested.

T1 sequence (O35433 whole entry): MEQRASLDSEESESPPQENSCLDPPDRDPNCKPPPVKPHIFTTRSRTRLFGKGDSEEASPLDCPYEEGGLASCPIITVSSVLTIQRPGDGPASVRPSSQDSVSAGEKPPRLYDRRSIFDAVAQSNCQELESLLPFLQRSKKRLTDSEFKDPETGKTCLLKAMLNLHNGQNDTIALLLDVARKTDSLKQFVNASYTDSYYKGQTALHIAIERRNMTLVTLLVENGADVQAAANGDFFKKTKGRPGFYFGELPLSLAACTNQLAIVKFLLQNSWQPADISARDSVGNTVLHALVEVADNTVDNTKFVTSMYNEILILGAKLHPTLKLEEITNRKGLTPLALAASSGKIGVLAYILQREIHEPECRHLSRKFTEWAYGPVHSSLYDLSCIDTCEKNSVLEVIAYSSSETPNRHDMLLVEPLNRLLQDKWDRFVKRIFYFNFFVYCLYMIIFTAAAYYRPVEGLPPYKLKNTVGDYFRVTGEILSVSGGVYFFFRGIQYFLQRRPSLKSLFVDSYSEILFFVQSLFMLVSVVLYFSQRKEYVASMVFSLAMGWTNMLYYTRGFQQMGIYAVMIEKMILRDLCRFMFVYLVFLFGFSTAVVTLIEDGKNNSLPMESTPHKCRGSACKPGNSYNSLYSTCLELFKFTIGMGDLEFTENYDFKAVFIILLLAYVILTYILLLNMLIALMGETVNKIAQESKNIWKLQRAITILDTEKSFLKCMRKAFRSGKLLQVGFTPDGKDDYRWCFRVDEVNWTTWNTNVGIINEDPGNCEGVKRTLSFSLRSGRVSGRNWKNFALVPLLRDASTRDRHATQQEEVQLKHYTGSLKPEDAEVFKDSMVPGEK

| SMILES | Mobilization of [Ca2+]i evoked by KCl [1] | effect on capsaicin-induced wiping in rats [2] | ED50 capsaicin-induced wiping [2] | IC50 [3] | concentration giving complete inhibition of the response to capsaicin [3] | threshold concentration that produced an inhibitory effect [3] |
| --- | --- | --- | --- | --- | --- | --- |
| COc1cc(CNC(=S)NCc2ccc(C(F)(F)F)cc2)c(I)cc1O [Ic, 1-(4-trifluoromethyl)-3-(2-iodo-4-hydroxy-5-methoxybenzyl) thiourea] | not affected | significantly reduced | 7.20 (6.34-7.89) mg/kg | 70 nM | 3 µM | 1 nM |
| COc1cc(CNC(=S)NCc2ccc(C(C)(C)C)cc2)c(I)cc1O [Ia, 1-(4-tert-butyl)-3-(2-iodo-4-hydroxy-5-methoxybenzyl) thiourea] | not affected | significantly reduced | 2.76 (2.05-3.35) mg/kg | 3.48 nM | 0.1 µM | 0.1 nM |
| COc1cc(CNC(=S)NCc2ccc(C(C)(C)C)cc2)c(Cl)cc1O [Ib, 1-(4-tert-butyl)-3-(2-chloro-4-hydroxy-5-methoxybenzyl) thiourea] | not affected | – | – | 3.86 nM | – | 0.1 nM |
| Oc1cc2c(cc1O)CN(C(=S)NCCc1ccc(Cl)cc1)CCC2 [capsazepine, reference compound] | – | – | – | 2340 nM | – | – |
